The source of these data is patent publication US11396493B2, “Amorphous pyrrolidine derivative as PPAR agonist and preparation method thereof” (GUANGDONG RAYNOVENT BIOTECH CO., LTD., priority 2017, dated 2022).

The EC50 is the concentration that produces a half-maximal response. Lower therefore signals a more potent agent.

Where only a bound is given, the exact number is not on record here.

Assay type in all cases: cell-based
One assay has as its target T1, PPAR Alpha (Homo sapiens, UniProt Q07869).
T1 sequence (Q07869 1-468): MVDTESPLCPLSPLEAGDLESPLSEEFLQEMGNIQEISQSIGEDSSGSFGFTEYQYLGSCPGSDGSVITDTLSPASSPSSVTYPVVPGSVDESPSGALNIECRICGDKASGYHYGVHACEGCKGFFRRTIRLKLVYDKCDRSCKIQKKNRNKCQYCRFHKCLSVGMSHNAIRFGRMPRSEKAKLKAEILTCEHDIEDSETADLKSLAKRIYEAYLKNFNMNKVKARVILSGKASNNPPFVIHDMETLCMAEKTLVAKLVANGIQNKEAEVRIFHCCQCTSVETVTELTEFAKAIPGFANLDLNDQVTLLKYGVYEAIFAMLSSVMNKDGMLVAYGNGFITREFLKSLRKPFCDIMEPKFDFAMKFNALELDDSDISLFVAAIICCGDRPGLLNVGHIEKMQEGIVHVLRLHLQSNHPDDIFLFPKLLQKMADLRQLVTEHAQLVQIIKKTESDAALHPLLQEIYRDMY
Nature of the assay: PathHunter NHR protein interaction test, agonist mode, PPAR Alpha. An excerpt:
(§1) Principles of in Vitro Test of PPAR Agonist Activity
(§2) Nuclear Hormone Receptor (NHR) Test
(§3) PathHunter's NHR protein interaction and nuclear transfer test are used to detect the activation ability of nuclear hormone receptor in a uniform, non-imaging experiment. This technology is called as enzyme fragment complementation […], and is developed by DiscoverX.
(§4) NHR protein test is based on the detection of the protein-protein interaction between a standard length of NHR protein in an activated state and a nuclear fusion protein containing a steroid receptor co-activating peptide (SRCP) region and one or more standard LXXLL acting sequences.
(§5) NHR is labeled on the ProLink™ component of an EFC test system, and the SRCP region and the enzyme receptor component (EA) are fused and expressed in the nucleus. When bound to the ligand, the NHR will transfer to the nucleus and obtain the SRCP region in which a complementary effect is produced, thereby generating an equivalent amount of activated-galactosidase (-Gal), accompanied by the generation of chemical light signals. The benefits associated with this pathway include reduced incubation time of the compound, direct test of an NHR target, use of human NHR sequences with a standard length, and selection of some new classes of compounds based on the disruption of protein-protein interactions.
(§6) The NHR NT test detected the transfer of an NHR between the cytoplasmic and nuclear compartments. The receptor was labeled on the ProLink™ component of the EFC test system, while the EA and nuclear sequence were fused, thereby limiting the expression of EA on the nucleus. Nucleus transfer leaded to the complementary effect with EA, thereby generating one equivalent of activated galactosidase (-Gal), accompanied by the generation of chemical light signals.
(§7) 1. PathHunter NHR cell strains were spread from a frozen stock in accordance with standard operations.
(§8) 2. Cells were seeded onto a 384-well white cell plate of 20 uL/well, and incubated at 37° C. for an appropriate time prior to test. The culture medium contained activated carbon dextran with filtered serum to reduce the level of hormone expression.
(§9) Experiments of Agonist Mode:
(§10) 1. As for the measurement of an agonist activity, it is required to incubate the cells with the compound to induce a response.
2. […]
(§11) 2. The chemiluminescence signals generated by the microplate were to be detected by a PerkinElmer Envision instrument.
(§12) 1. The activity of the compound was analyzed by CIBS data analysis software (ChemInnovation, CA).
(§13) 2. For experiments of agonist mode, the percentage activity is calculated by the following formula: % activity=100%×(the mean RLU of the compound to be tested−the mean background RLU of the medium)/(the mean of maximum control of the ligand−the mean background RLU of the medium)

The next assay deals with T2, PPAR Gamma (Homo sapiens, UniProt P37231).
T2 sequence (P37231 1-505): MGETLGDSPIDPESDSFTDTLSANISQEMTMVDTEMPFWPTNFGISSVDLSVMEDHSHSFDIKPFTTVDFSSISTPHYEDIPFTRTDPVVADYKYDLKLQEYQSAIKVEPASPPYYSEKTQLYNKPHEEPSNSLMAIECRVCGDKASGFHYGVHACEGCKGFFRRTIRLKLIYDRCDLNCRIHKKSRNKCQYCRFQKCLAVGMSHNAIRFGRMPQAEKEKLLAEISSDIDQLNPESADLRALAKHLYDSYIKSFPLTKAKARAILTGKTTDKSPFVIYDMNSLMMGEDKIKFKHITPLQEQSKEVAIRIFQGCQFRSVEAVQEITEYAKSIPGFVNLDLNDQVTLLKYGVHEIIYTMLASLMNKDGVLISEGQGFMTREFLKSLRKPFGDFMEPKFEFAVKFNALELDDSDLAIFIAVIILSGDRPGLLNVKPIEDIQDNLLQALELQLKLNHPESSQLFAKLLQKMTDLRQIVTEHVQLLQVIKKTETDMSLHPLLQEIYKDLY
The assay can be described thus: PathHunter NHR protein interaction test, agonist mode, PPAR Gamma. The settings on record: agonist mode.
Source text: as §1, §2, §3, §4, §5
The NHR NT test detected the transfer of an NHR between the cytoplasmic and nuclear compartments. […]
as §11, §12, §13

A further assay addresses T3, PPAR Delta (Homo sapiens, UniProt Q03181).
T3 sequence (Q03181 1-441): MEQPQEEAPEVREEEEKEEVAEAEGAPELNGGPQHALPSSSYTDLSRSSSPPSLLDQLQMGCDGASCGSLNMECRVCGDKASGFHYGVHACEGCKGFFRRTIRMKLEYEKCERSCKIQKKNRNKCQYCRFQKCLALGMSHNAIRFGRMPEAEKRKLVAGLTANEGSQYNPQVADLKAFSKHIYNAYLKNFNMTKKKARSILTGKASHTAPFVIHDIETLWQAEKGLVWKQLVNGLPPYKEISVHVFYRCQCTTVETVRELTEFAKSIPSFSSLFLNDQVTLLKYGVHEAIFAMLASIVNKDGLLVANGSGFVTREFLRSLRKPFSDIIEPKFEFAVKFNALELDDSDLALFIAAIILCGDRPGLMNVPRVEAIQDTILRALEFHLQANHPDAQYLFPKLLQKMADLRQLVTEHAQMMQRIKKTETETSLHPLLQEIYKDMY
Nature of the assay: PathHunter NHR protein interaction test, agonist mode, PPAR Delta.
Source text: as §1, §2, §3, §4, §5, §6, §7, §8, §9, §10
2. […]
as §11, §12, §13

For `CSc1ccc(C(=O)/C=C/c2cc(C)c(OC(C)(C)C(=O)O)c(C)c2)cc1` [GFT-505, Elafibranor, reference compound], the concentration for a half-maximal effect (EC50) on PPAR Alpha (agonist mode) and at PPAR Gamma was above 250 nM in each case. `CC(C)(Sc1ccc(CCN(CCCCC2CCCCC2)C(=O)NC2CCCCC2)cc1)C(=O)O` [GW7647, reference compound]: the “PPAR Alpha Maximum stimulus-response value” on PPAR Alpha (reference agonist, set as 100%) is listed as 100%. Turning to `CCCc1c(OCCCOc2ccc(OCC(=O)O)cc2)ccc(C(C)=O)c1O` [L-165,041, reference compound], the EC50 on PPAR Delta (agonist mode) is below 100 nM. For the same compound, at PPAR Delta (reference agonist, set as 100%), the “PPAR Delta Maximum stimulus-response value” worked out at 100%.
